We go through 77 sequences from the supplement of paper PMC11208160.
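Note: IS621 recombinase and bridge RNA in Escherichia coli cells.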

The data set in a line: recombinant barcode read abundance after kanamycin selection (control-corrected) (log10(CPM+1)); higher = more efficient recombination; sequences stand for … in AGTGCAGAGAAAATCGGCCAGTTTTCTCTGCCTGCAGTCCGCATGCCGT…AGATTTATGCAGCGGACTGCCTTTCTCCCAAAGTGATAAACCGGACAGTATCATGGACCGGTTTTCCCGGTAATCCGTATTTGCAAGGTTGGTTTCACT; site = the 11-nt target. Summed up:
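In E. coli, a pooled library matched targets to IS621 bridge RNA target-binding loops and was introduced alongside a donor plasmid. Cells went onto chloramphenicol/ampicillin/kanamycin with 0.1 mM IPTG or onto chloramphenicol/ampicillin LB agar as control, in duplicate. Recombination efficiency, from recombinant-junction barcodes as counts per million, is averaged and control-corrected. It is reported as log10(CPM+1).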
Consider “CTAGCCTCTTGGGTTCTAACCTGTTGCAT (site CTATCCTCTAT)”, for which the “recombinant barcode read abundance (log10)” value came to 0.0542.
To “CTAGCGACTTGGGTTCTAACCTGTTGCTG (site CTAGCCACTTA)” belongs 0; to “CTAGCGACTTGGGTTCTAACCTGTTGCTG (site CTAGCGACTCA)”, 0.287; to “CTAGGAGCTTGGGTTCTAACCTGTTGCGT (site CTAGAAGCTAC)”, 1.84.
For the sequence “CTAGGAGCTTGGGTTCTAACCTGTTGCGT (site CTAGGAGCTAC)”, the “recombinant barcode read abundance (log10)” value was determined as 2.12.
In the case of “CTAGGATCTTGGGTTCTAACCTGTTGCGT (site CTAGGATCTAC)”, the “recombinant barcode read abundance (log10)” value was 2.77.
With “CTAGGATCTTGGGTTCTAACCTGTTGCGT (site CTAGTCTCTAC)”, the “recombinant barcode read abundance (log10)” value worked out at 0.152.
To “CTAGGCCCTTGGGTTCTAACCTGTTGCAT (site CTAGGCCCTAA)” belongs 0.379.
Then “CTAGGCCCTTGGGTTCTAACCTGTTGCAT (site CTAGGCCCTAC)”, with 1.97; and “CTAGGCCCTTGGGTTCTAACCTGTTGCAT (site CTAGGCCCTAG)”, with 0.318.
In the case of “CTAGGCCCTTGGGTTCTAACCTGTTGCAT (site CTAGGCCCTAT)”, the “recombinant barcode read abundance (log10)” value turned out to be 2.77.
Then “CTAGTAGCTTGGGTTCTAACCTGTTGCTC (site CTAGTAGCTGA)”, with 1.74; and “CTAGTAGCTTGGGTTCTAACCTGTTGCTC (site GTAGCAGCTGA)”, with 0.331.
Then “CTAGTCACTTGGGTTCTAACCTGTTGCAC (site CTAGTCACTGT)”, with 2.81; and “CTAGTCACTTGGGTTCTAACCTGTTGCAC (site CTAGTGTCTGT)”, with 0.0438; and “CTAGTTGCTTGGGTTCTAACCTGTTGCAA (site CTAATTGCTTT)”, with 0.0799.
To “CTAGTTGCTTGGGTTCTAACCTGTTGCAA (site CTACTTGCTTT)” belongs 0.229; to “CTAGTTGCTTGGGTTCTAACCTGTTGCAA (site CTAGTTGCTTT)”, 0.328.
For “CTAGTTGCTTGGGTTCTAACCTGTTGCAA (site CTATTTGCTTT)”, the “recombinant barcode read abundance (log10)” value was 0.0786.
For “CTATAGACTTGGGTTCTAACCTGTTGCCA (site CTATAGACTTG)”, the “recombinant barcode read abundance (log10)” value was 0.079.
As to “CTATAGACTTGGGTTCTAACCTGTTGCCA (site CTCTAGACTAG)”, the “recombinant barcode read abundance (log10)” value is 0.206.
Consider “CTATCGACTTGGGTTCTAACCTGTTGCCT (site CTATAGACTAG)”, for which the “recombinant barcode read abundance (log10)” value was 0.0416.
Take “CTATCGACTTGGGTTCTAACCTGTTGCCT (site CTATCGACTAG)”: the “recombinant barcode read abundance (log10)” value was 0.766.
Turning to “CTATCGACTTGGGTTCTAACCTGTTGCCT (site CTATGGACTAG)”, the “recombinant barcode read abundance (log10)” value was determined as 0.163.
To “CTATCGACTTGGGTTCTAACCTGTTGCCT (site CTATTGACTAG)” belongs 0.0575; to “CTATCGTCTTGGGTTCTAACCTGTTGCCT (site ATATCGTCTAG)”, 0.0956; to “CTATCGTCTTGGGTTCTAACCTGTTGCCT (site CTATCGTCTAG)”, 1.22.
Then “CTATGCCCTTGGGTTCTAACCTGTTGCTA (site CTATGCCCTTA)”, with 1.16; and “CTATGCCCTTGGGTTCTAACCTGTTGCTA (site CTATGCCCTTC)”, with 0.179.
To “CTATGGACTTGGGTTCTAACCTGTTGCAC (site CTATGGACTAT)” belongs 0.132; to “CTATGGACTTGGGTTCTAACCTGTTGCAC (site CTATGGACTCT)”, 0.242; to “CTATGGACTTGGGTTCTAACCTGTTGCAC (site CTATGGACTGT)”, 1.3.
As for “CTATGGACTTGGGTTCTAACCTGTTGCAC (site CTATGGACTTT)”, the “recombinant barcode read abundance (log10)” value amounted to 0.0443.
Consider “CTATGGACTTGGGTTCTAACCTGTTGCCT (site CTATAGACTAG)”, for which the “recombinant barcode read abundance (log10)” value amounted to 0.398.
Take “CTATGGACTTGGGTTCTAACCTGTTGCCT (site CTATCGACTAG)”: the “recombinant barcode read abundance (log10)” value was found to be 0.196.
To “CTATGGACTTGGGTTCTAACCTGTTGCCT (site CTATGGACTAG)” belongs 0.872; to “CTATGGACTTGGGTTCTAACCTGTTGCCT (site CTATTGACTAG)”, 0.027; to “CTATTAGCTTGGGTTCTAACCTGTTGCCG (site CTAGTAGCTCG)”, 0.418.
Then “CTATTAGCTTGGGTTCTAACCTGTTGCCG (site CTATTAGCTCG)”, with 0.725; and “CTATTGTCTTGGGTTCTAACCTGTTGCGA (site CTATTGTCTAC)”, with 0.0206; and “CTATTGTCTTGGGTTCTAACCTGTTGCGA (site CTATTGTCTCC)”, with 0.165.
Regarding “CTATTGTCTTGGGTTCTAACCTGTTGCGA (site CTATTGTCTGC)”, the “recombinant barcode read abundance (log10)” value turned out to be 0.0565.
Then “CTATTGTCTTGGGTTCTAACCTGTTGCGA (site CTATTGTCTTC)”, with 2.4.
With “CTCAAAGCTTGGGTTCTAACCTGTTGCCG (site CTCAAAGCTCG)”, the “recombinant barcode read abundance (log10)” value was 0.258.
As to “CTCAAAGCTTGGGTTCTAACCTGTTGCCG (site TAGTCCACTGC)”, the “recombinant barcode read abundance (log10)” value came to 0.196.
Consider “CTCAAAGCTTGGGTTCTAACCTGTTGCGA (site CTCAAAGCTTC)”, for which the “recombinant barcode read abundance (log10)” value turned out to be 1.38.
To “CTCAAAGCTTGGGTTCTAACCTGTTGCGA (site GGGGTCCCTAA)” belongs 0.189.
Then “CTCAAGGCTTGGGTTCTAACCTGTTGCGT (site CTCAAGGCTAC)”, with 1.6; and “CTCAAGGCTTGGGTTCTAACCTGTTGCGT (site CTCCAGGCTCC)”, with 0.128.
For the sequence “CTCACACCTTGGGTTCTAACCTGTTGCCT (site ATCACACCTAG)”, the “recombinant barcode read abundance (log10)” value is 0.386.
Then “CTCACACCTTGGGTTCTAACCTGTTGCCT (site CTCACACCTAG)”, with 0.931; and “CTCACACCTTGGGTTCTAACCTGTTGCTT (site CTCAAACCTAA)”, with 0.257; and “CTCACACCTTGGGTTCTAACCTGTTGCTT (site CTCACACCTAA)”, with 0.328.
To “CTCACGACTTGGGTTCTAACCTGTTGCAG (site CTCACGACTCT)” belongs 0.273; to “CTCACGACTTGGGTTCTAACCTGTTGCAG (site GAATGAGCTAG)”, 0.245; to “CTCAGGTCTTGGGTTCTAACCTGTTGCCT (site CTCAGGTCTAG)”, 1.01.
To “CTCAGGTCTTGGGTTCTAACCTGTTGCCT (site CTCAGGTCTTG)” belongs 0.197.
On to “CTCATACCTTGGGTTCTAACCTGTTGCGT (site CTAATACCTAC)”, for which the “recombinant barcode read abundance (log10)” value was found to be 0.151.
For the sequence “CTCATACCTTGGGTTCTAACCTGTTGCGT (site CTCATACCTAC)”, the “recombinant barcode read abundance (log10)” value was 1.92.
To “CTCATAGCTTGGGTTCTAACCTGTTGCGA (site CTCATAGCTTC)” belongs 1.06.
Then “CTCATAGCTTGGGTTCTAACCTGTTGCGA (site TGAGGGACTAG)”, with 0.0808; and “CTCATGTCTTGGGTTCTAACCTGTTGCTT (site CTCATGTCTAA)”, with 1.44; and “CTCATGTCTTGGGTTCTAACCTGTTGCTT (site TTCATGTCTAA)”, with 0.222.
On to “CTCATTCCTTGGGTTCTAACCTGTTGCCT (site CTCATTCCTAA)”, for which the “recombinant barcode read abundance (log10)” value was 0.0318.
Take “CTCATTCCTTGGGTTCTAACCTGTTGCCT (site CTCATTCCTAC)”: the “recombinant barcode read abundance (log10)” value came out at 0.216.
In the case of “CTCATTCCTTGGGTTCTAACCTGTTGCCT (site CTCATTCCTAG)”, the “recombinant barcode read abundance (log10)” value stood at 0.129.
Then “CTCATTCCTTGGGTTCTAACCTGTTGCCT (site CTCATTCCTAT)”, with 0.0571.
As for “CTCCAAGCTTGGGTTCTAACCTGTTGCCT (site CTACAAGCTAG)”, the “recombinant barcode read abundance (log10)” value came out at 0.105.
As to “CTCCAAGCTTGGGTTCTAACCTGTTGCCT (site CTCCAAGCTAG)”, the “recombinant barcode read abundance (log10)” value was found to be 0.665.
For “CTCCAAGCTTGGGTTCTAACCTGTTGCCT (site CTGCAAGCTAG)”, the “recombinant barcode read abundance (log10)” value turned out to be 0.0619.
To “CTCCAAGCTTGGGTTCTAACCTGTTGCCT (site CTTCAAGCTAG)” belongs 0.0961; to “CTCCAATCTTGGGTTCTAACCTGTTGCCT (site CTCCAATCTAG)”, 0.666; to “CTCCAATCTTGGGTTCTAACCTGTTGCCT (site CTCCTATCTAG)”, 0.113.
For “CTCCAGCCTTGGGTTCTAACCTGTTGCGG (site CTCCAACCTCC)”, the “recombinant barcode read abundance (log10)” value came to 0.411.
Turning to “CTCCAGCCTTGGGTTCTAACCTGTTGCGG (site CTCCAGCCTCC)”, the “recombinant barcode read abundance (log10)” value turned out to be 1.49.
To “CTCCCAACTTGGGTTCTAACCTGTTGCCG (site CTCCCAACTCG)” belongs 0.136; to “CTCCCAACTTGGGTTCTAACCTGTTGCCG (site CTCCCTACTCT)”, 0.356.
